Here are results for 13 compounds from patent publication US8785457B2 (Cellzome Limited, priority 2009, dated 2014).

Structures can show the parent of a compound that is named as a salt. Where two headings read alike, the source gives them in different places. Where only a bound is given, the exact number is not on record here.

Assay [1] deals with T1, PI3K delta (PI3 Kd) (Homo sapiens, UniProt O00329).
T1 construct: endogenous in cells; host or cells: Jurkat, clone E6-1 (ATCC TIB-152) cell lysate
The assay can be described thus: kinobeads assay, PI3K delta. The format is binding. The procedure, abridged:
(§1)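 IC50 values came from dose-response curves after test compound (1:3 series) competed with an immobilized phenylmorpholin-chromen affinity matrix for kinases in Jurkat lysate at 5 mg/mL protein. Eluted captured DNA-PK and PI3Kδ were measured by specific-antibody dot blot and infrared imaging. Buffer was Tris pH 7.4, NP40, MgCl2, NaCl, vanadate, DTT, NaF.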

The target in assay [2] is T2, DNA-dependent protein kinase (DNA-PK) (Homo sapiens, UniProt P78527).
T2 construct: endogenous in cells; host or cells: Jurkat, clone E6-1 (ATCC TIB-152) cell lysate
As to the kind of experiment: kinobeads assay, DNA-PK. The assay is classed as binding. The procedure, abridged: as §1

Assay [3] concerns S6RP serine-240/244 phosphorylation. The assay can be described thus: In vitro Phospho-S6 cellular assay (pS6RP S240/244) in HEK293T/17 cells. The assay is classed as cell-based. As to conditions: Homo sapiens, 2 hours, read-out: pS6 IC50. From the text:
Activation of mTOR signaling results in phosphorylation of several downstream targets. In cells, mTOR exists in two different protein complexes. The mTOR Complex-1 (mTORC1) phosphorylates and activates S6 Kinase 1 (S6K1) and S6 Kinase 2 (S6K2) (also known as p70S6K) which then phosphorylate S6 Ribosomal Protein (S6RP) (also known as RPS6)3. S6RP is phosphorylated on serine 235, serine 236, serine 240 and serine 244 by both pS6K1 and pS6K2. The mTOR Complex-2 (mTORC2) phosphorylates AKT on serine 473 which activates the AKT signaling pathway.
The assay measures a test compound's inhibition of S6RP serine-240/244 phosphorylation and inhibition of Akt serine-473 phosphorylation in human embryonic kidney derived HEK293T/17 cells (ATCC CRL-11268).
The HEK293T/17 cell line is maintained in DMEM media (Invitrogen catalogue number 41965-039) supplemented with 10% FCS at 37° C. in a 5% CO2 humidified incubator.
Cells are seeded in 96-well plates at 40,000 cells/well (pS6RP S240/244 assay) or 80,000 cells/well (pAkt S473 assay) in 90 μl growth media (DMEM, 2% FCS). Plates are incubated for 1 hour in a humidified incubator to allow the cells to adhere. Cells are treated with 8 concentrations of test compounds or DMSO alone for controls (final DMSO concentration 0.1%) and incubated at 37° C. for 2 hours. Then 20 μl of 5× concentrated lysis buffer (750 mM NaCl, 100 mM Tris pH7.4, 5 mM ADTA, 5 mM EGTA, 5% Triton X-100) is added, plates are sealed and incubated for 15 minutes at 4° C. with gentle shaking. After cell lysis, 25 μl cell lysate is transferred to a MesoScale plate coated with an antibody to pS6RP Ser240/244 (MesoScale Discovery K150DGD-3) or an antibody to pAkt Ser 473 (MesoScale Discovery K151DGD-3). Plates have been blocked before by incubation with 150 μl MesoScale Discovery Blocking Solution-A for 1 hour at room temperature followed by washing with 150 μl 1× Tris wash buffer per well. After the transfer of the cell lysate to the MSD plate, the pS6RP (or pAkt) protein is captured on the coated antibody by incubation at room temperature for 1 hour with gentle shaking. After the capture step the plate is washed three times with 150 μl of 1× Tris wash buffer per well. Then 25 μl detection antibody conjugated with a Sulfo-Tag is added and incubated for 1 hour at room temperature with gentle shaking. Subsequently the antibody solution is removed and the plate is washed 3 times with 150 μl×Tris wash buffer per well and 150 μl Read buffer is added. The plates are analysed on a MSD 2400 Plate Reader (MesoScale Discovery). Data analysis is performed using nonlinear regression for a sigmoidal dose-response with a variable slope.

Assay [4] deals with T3, PI3 Kgamma (PI3 Kg) (Homo sapiens, UniProt P48736).
T3 construct: endogenous in cells; host or cells: cell lysate
The assay can be described thus: kinobeads assay, PI3Kgamma. The assay is classed as binding. The essentials:
(§2)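 Cell lysate aliquots are incubated with compound over a concentration range and with an affinity matrix of immobilized phenylmorpholin-chromen ligand. Beads are then removed, bound proteins eluted, and each kinase is quantified by multiplexed immunodetection to derive IC50 values.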

In assay [5] the target is T4, PI3 Kbeta (PI3 Kb) (Homo sapiens, UniProt P42338).
T4 construct: endogenous in cells; host or cells: cell lysate
The assay can be described thus: kinobeads assay, PI3Kbeta. The format is binding. The essentials: as §2

In assay [6] the target is T5, PI3Kalpha (PI3Ka) (Homo sapiens, UniProt P42336).
T5 construct: endogenous in cells; host or cells: cell lysate
The assay can be described thus: kinobeads assay, PI3Kalpha. The assay is classed as binding. To be noted: for PI3Ka / IC50: Further Kinobeads Data; for IC50: read-out: PI3Ka. The essentials: as §2

Assay [7] deals with T6, mTOR (Homo sapiens, UniProt P42345).
T6 construct: endogenous in cells; host or cells: Jurkat, clone E6-1 (ATCC TIB-152) cell lysate
The assay can be described thus: mTOR kinobeads assay (competitive binding in Jurkat cell lysate, immunodetection). As to conditions: Further Kinobeads Data; read-out: mTor. The procedure, abridged:
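IC50 derived from dose-response curves of mTOR captured on immobilized phenylmorpholin-chromen beads, detected by antibody dot blot with infrared fluorescence.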

[8] abbreviates: kinobeads assay, Table 4, read-out: Inhibition values (IC50) PI3Kd.
Setting [9] is: kinobeads assay, Table 6, read-out: Inhibition values (IC50) PI3Kd.
Setting [10] is: kinobeads assay, Table 4, read-out: Inhibition values (IC50) DNA-PK.
Where [11] appears, read: kinobeads assay, Table 6, read-out: Inhibition values (IC50) DNAPK.
The mark [12] stands for this setting: Further Kinobeads Data, read-out: PI3Kg.
Setting [13] is: Further Kinobeads Data, read-out: PI3Kb.
Where [14] appears, read: Further Kinobeads Data, read-out: PI3Kd.
Setting [15] is: Further Kinobeads Data, read-out: DNAPK.

T1 sequence (O00329 whole entry): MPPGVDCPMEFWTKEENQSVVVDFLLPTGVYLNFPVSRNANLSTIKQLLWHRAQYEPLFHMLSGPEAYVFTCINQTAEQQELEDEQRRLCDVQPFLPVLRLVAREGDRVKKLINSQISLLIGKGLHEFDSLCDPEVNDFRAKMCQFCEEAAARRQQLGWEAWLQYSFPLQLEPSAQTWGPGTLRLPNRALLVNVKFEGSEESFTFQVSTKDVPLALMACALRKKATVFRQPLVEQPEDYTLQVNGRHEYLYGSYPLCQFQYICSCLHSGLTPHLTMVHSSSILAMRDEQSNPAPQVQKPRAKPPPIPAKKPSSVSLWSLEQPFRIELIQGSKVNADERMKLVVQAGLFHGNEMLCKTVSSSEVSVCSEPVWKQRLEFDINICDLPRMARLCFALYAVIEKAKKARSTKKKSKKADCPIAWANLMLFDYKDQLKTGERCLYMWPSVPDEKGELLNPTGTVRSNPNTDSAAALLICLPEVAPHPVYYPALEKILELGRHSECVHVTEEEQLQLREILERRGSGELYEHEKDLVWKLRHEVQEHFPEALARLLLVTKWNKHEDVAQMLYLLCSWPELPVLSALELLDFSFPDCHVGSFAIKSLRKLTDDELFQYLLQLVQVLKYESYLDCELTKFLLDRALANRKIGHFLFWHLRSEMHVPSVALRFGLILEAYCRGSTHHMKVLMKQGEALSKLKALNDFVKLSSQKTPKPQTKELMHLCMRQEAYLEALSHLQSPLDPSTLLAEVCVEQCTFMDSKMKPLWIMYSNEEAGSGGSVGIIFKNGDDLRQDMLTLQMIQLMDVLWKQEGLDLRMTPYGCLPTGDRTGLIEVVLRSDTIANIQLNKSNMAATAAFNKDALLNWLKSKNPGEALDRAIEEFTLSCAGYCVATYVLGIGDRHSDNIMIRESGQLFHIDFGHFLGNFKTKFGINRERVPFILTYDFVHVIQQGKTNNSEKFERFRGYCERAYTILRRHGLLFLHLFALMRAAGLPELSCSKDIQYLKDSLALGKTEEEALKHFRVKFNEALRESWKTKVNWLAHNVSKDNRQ
T1 sequence (P27986 whole entry partner): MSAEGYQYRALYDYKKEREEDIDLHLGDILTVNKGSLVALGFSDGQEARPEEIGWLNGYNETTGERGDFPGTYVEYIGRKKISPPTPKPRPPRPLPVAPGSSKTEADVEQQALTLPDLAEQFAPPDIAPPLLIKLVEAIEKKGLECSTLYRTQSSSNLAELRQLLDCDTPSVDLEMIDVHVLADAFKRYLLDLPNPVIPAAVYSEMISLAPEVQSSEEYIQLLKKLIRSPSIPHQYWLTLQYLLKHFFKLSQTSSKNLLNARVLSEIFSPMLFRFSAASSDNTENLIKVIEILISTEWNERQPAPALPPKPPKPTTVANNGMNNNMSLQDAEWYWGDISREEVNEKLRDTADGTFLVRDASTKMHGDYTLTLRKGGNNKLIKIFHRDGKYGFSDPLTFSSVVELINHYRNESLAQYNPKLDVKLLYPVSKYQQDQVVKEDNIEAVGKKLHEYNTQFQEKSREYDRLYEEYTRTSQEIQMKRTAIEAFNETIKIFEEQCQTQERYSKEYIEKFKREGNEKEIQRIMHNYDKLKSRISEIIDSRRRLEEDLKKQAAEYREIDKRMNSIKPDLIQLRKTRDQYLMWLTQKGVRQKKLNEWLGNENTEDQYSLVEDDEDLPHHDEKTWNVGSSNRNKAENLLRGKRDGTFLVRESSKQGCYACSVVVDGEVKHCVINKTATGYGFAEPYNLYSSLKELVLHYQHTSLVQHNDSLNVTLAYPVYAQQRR
T3 sequence (P48736 whole entry): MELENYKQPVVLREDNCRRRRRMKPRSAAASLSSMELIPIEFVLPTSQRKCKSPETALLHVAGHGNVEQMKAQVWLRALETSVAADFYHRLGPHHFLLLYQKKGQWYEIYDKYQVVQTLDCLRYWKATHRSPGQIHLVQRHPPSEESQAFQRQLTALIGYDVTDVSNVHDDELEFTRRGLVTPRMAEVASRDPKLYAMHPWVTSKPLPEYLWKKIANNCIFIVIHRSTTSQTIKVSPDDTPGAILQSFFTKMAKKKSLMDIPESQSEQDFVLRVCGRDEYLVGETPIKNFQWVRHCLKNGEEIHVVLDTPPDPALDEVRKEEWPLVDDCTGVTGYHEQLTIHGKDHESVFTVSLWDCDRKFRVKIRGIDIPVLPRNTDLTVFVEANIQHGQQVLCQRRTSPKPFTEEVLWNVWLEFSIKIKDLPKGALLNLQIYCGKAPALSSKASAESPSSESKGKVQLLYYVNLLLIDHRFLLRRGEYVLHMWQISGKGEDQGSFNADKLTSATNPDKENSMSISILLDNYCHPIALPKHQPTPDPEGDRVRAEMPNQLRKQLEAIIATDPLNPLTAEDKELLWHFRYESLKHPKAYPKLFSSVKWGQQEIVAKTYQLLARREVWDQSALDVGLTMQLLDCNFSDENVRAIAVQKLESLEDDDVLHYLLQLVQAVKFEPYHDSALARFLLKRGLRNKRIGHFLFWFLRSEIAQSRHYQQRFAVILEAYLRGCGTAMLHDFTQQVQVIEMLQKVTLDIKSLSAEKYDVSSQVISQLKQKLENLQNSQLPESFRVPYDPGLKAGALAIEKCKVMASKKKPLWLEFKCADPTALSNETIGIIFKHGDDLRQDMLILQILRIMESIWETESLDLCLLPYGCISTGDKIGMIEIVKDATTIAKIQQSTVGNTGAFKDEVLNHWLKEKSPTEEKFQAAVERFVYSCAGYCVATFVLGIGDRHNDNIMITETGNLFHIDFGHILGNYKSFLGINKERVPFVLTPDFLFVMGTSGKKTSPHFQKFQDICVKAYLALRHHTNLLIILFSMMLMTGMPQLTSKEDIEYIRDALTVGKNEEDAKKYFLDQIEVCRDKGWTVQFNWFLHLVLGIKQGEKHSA
T5 sequence (P42336 whole entry): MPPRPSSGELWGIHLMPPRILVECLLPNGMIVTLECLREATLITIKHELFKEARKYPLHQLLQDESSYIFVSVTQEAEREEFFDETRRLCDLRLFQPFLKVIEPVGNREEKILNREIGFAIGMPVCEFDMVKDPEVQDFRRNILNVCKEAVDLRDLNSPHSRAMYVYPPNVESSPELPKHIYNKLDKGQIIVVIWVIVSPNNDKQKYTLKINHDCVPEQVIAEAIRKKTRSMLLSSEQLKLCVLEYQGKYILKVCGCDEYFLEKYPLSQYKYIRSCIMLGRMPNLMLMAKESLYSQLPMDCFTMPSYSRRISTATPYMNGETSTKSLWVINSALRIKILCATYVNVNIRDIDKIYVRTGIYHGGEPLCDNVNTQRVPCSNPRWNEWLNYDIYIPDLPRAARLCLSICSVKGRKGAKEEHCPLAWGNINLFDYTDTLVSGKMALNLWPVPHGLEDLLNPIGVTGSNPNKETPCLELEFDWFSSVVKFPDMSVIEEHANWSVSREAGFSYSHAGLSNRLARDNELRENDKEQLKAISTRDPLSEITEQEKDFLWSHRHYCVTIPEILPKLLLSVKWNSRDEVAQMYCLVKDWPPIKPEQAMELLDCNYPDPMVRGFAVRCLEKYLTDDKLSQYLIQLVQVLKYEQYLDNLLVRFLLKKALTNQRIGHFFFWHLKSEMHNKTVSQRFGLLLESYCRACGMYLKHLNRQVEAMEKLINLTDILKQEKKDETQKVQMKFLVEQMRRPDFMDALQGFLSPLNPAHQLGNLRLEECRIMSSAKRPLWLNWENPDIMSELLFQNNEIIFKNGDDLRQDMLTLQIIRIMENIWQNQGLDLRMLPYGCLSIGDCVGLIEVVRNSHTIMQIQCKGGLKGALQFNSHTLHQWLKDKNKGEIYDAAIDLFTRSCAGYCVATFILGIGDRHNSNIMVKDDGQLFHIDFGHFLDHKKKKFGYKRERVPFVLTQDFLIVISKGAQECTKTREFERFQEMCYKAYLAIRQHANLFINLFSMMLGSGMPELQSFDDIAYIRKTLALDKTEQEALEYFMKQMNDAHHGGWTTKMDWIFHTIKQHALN
T5 sequence (P27986 whole entry partner): as the sequence (P27986 whole entry partner) above
T4 sequence (P42338 whole entry): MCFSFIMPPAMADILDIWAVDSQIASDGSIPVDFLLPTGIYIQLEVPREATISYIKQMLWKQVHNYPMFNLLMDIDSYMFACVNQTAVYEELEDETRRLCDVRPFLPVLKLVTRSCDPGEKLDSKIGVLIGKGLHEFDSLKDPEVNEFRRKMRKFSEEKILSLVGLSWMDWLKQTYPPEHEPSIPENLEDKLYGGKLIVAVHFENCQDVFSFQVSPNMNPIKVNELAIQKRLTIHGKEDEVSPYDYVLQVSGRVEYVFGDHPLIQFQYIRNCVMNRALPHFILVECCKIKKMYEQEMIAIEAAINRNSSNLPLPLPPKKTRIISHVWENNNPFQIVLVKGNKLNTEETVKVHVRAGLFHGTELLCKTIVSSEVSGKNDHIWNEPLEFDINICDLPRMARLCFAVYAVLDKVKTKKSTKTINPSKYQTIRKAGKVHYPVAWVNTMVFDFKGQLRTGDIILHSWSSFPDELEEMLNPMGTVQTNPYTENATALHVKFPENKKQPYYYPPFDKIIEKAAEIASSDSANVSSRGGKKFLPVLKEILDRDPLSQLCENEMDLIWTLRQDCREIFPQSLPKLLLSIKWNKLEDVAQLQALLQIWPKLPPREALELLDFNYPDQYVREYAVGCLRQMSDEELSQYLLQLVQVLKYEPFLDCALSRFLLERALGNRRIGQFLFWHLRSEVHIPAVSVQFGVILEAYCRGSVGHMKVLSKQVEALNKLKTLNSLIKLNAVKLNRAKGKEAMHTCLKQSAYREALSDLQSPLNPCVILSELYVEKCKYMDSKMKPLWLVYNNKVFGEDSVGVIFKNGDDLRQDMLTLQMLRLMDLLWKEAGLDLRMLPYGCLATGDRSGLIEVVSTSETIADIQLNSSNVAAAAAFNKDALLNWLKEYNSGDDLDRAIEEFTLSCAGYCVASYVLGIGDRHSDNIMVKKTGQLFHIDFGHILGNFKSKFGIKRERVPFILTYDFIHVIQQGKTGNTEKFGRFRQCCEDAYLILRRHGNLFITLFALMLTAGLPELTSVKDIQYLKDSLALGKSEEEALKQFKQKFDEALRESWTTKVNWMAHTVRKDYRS
T4 sequence (P27986 whole entry partner): as the sequence (P27986 whole entry partner) above

With `CCNC(=O)Nc1ccc(-c2nc3c(c(N4CCOC[C@@H]4C)n2)CN(C(=O)OC(C)(C)C)CC3)cc1` [Example 2, (S)-tert-butyl 2-(4-(3-ethylureido)phenyl)-4-(3-methylmorpholino)-7,8-dihydropyrido[4,3-d]pyrimidine-6(5H)-carboxylate], the IC50 in assay [1] (setting [8]) is greater than 10 µM; in assay [1] (setting [9]) it was greater than 10 µM; in assay [2] (setting [10]) it was greater than 10 µM; in assay [2] (setting [11]), greater than 10 µM; in assay [3], 0.122 µM.

In the case of `CCNC(=O)Nc1ccc(-c2nc3c(c(N4CCOCC4)n2)CN(C(=O)OC(C)(C)C)C3)cc1` [Example 63, tert-butyl 2-(4-(3-ethylureido)phenyl)-4-morpholino-5H-pyrrolo[3,4-d]pyrimidine-6(7H)-carboxylate], the IC50 in assay [1] (setting [8]) was 1 to 10 µM; in assay [1] (setting [9]) it was 1 to 10 µM; in assay [2] (setting [10]) it was greater than 10 µM; in assay [2] (setting [11]), greater than 10 µM; in assay [3] it was 0.046 µM.

As to `CCNC(=O)Nc1ccc(-c2nc3c(c(N4CCOC[C@@H]4C)n2)CCN(C(C)C)C3)cc1.O=CO` [Example 75, (S)-1-ethyl-3-(4-(7-isopropyl-4-(3-methylmorpholino)-5,6,7,8-tetrahydropyrido[3,4-d]pyrimidin-2-yl)phenyl)urea formate], the IC50 in assay [4] (kinobeads assay, Table 6, read-out: Inhibition values (IC50) PI3Kg) was greater than 10 µM; in assay [5] (kinobeads assay, Table 6, read-out: Inhibition values (IC50) PI3Kb) it was greater than 10 µM; in assay [1] (setting [9]) it was greater than 10 µM; in assay [2] (setting [11]), greater than 10 µM; in assay [3] it was 0.082 µM. Further, the “Inhibition values (IC50) PI3Ka” value in assay [6] (kinobeads assay, Table 6) is recorded as “D (D >10 μM)”.

`Cl.O=C(Nc1ccc(-c2nc3c(c(N4CCOCC4)n2)CNC3)c(F)c1)NC1CC1` [Example 148, 1-(Cyclopropyl)-3-(3-fluoro-4-(4-morpholino-6,7-dihydro-5H-pyrrolo[3,4-d]pyrimidin-2-yl)phenyl)urea hydrochloride]: the IC50 in assay [4] (setting [12]) is greater than 10 µM; in assay [7] it was less than 0.1 µM; in assay [5] (setting [13]) it was greater than 10 µM; in assay [1] (setting [14]), greater than 10 µM; in assay [2] (setting [15]), greater than 10 µM. Also, the PI3Ka entry in assay [6] is recorded as “D (D >10 μM)”.

For `C[C@H]1COCCN1c1nc(-c2ccc(NC(=O)NC3CC3)cc2F)nc2c1CNC2` [Example 149, (S)-1-(Cyclopropyl)-3-(3-fluoro-4-(4-(3-methylmorpholino)-6,7-dihydro-5H-pyrrolo[3,4-d]pyrimidin-2-yl)phenyl)urea hydrochloride], the IC50 was greater than 10 µM in assay [4] (setting [12]); 0.1 to 1 µM in assay [7]; greater than 10 µM in assay [5] (setting [13]); 1 to 10 µM in assay [6]; greater than 10 µM in assay [1] (setting [14]); greater than 10 µM in assay [2] (setting [15]).

On to `CCNC(=O)Nc1ccc(-c2nc3c(c(N4CCOCC4)n2)CNC3)c(F)c1` [Example 150, 1-Ethyl-3-(3-fluoro-4-(4-morpholino-6,7-dihydro-5H-pyrrolo[3,4-d]pyrimidin-2-yl)phenyl)urea hydrochloride], for which the IC50 in assay [4] (setting [12]) is greater than 10 µM; in assay [7], less than 0.1 µM; in assay [5] (setting [13]), greater than 10 µM; in assay [6], 1 to 10 µM; in assay [1] (setting [14]), greater than 10 µM; in assay [2] (setting [15]), greater than 10 µM.

Turning to `CCNC(=O)Nc1ccc(-c2nc3c(c(N4CCOC[C@@H]4C)n2)CN(C(C)=O)C3)c(F)c1` [Example 157, (S)-1-(4-(6-acetyl-4-(3-methylmorpholino)-6,7-dihydro-5H-pyrrolo[3,4-d]pyrimidin-2-yl)-3-fluorophenyl)-3-ethylurea], the IC50 is greater than 10 µM in assay [4] (setting [12]); less than 0.1 µM in assay [7]; greater than 10 µM in assay [5] (setting [13]); 1 to 10 µM in assay [1] (setting [14]); greater than 10 µM in assay [2] (setting [15]). The PI3Ka entry in assay [6] is “D (D >10 μM)”.

On to `CCNC(=O)Nc1ccc(-c2nc3c(c(N4CCOC[C@@H]4C)n2)CNC3)c(F)c1.Cl` [Example 158, (S)-1-ethyl-3-(3-fluoro-4-(4-(3-methylmorpholino)-6,7-dihydro-5H-pyrrolo[3,4-d]pyrimidin-2-yl)phenyl)urea hydrochloride], for which the IC50 in assay [4] (setting [12]) was greater than 10 µM; in assay [7] it was less than 0.1 µM; in assay [5] (setting [13]) it was greater than 10 µM; in assay [1] (setting [14]), greater than 10 µM; in assay [2] (setting [15]), greater than 10 µM. Besides, in assay [6], the PI3Ka result is “D (D >10 μM)”.

In the case of `CCNC(=O)Nc1ccc(-c2nc3c(c(N4CCOCC4)n2)CN(C(C)=O)C3)c(F)c1` [Example 161, 1-(4-(6-acetyl-4-morpholino-6,7-dihydro-5H-pyrrolo[3,4-d]pyrimidin-2-yl)-3-fluorophenyl)-3-ethylurea], the IC50 in assay [4] (setting [12]) is greater than 10 µM; in assay [7], less than 0.1 µM; in assay [5] (setting [13]), greater than 10 µM; in assay [1] (setting [14]), greater than 10 µM; in assay [2] (setting [15]) it was greater than 10 µM. Besides, the PI3Ka result in assay [6] was “D (D >10 μM)”.

With `CC(=O)N1Cc2nc(-c3ccc(NC(=O)NC4CC4)cc3F)nc(N3CCOCC3)c2C1` [Example 166, 1-(4-(6-Acetyl-4-morpholino-6,7-dihydro-5H-pyrrolo[3,4-d]pyrimidin-2-yl)-3-fluorophenyl)-3-cyclopropylurea], the IC50 in assay [4] (setting [12]) is greater than 10 µM; in assay [7], less than 0.1 µM; in assay [5] (setting [13]) it was greater than 10 µM; in assay [1] (setting [14]), greater than 10 µM; in assay [2] (setting [15]) it was greater than 10 µM. In addition, in assay [6], the PI3Ka result is given as “D (D >10 μM)”.

For `COC(=O)N1Cc2nc(-c3ccc(NC(=O)NCCO)cc3F)nc(N3CCOCC3)c2C1` [Example 175, Methyl 2-(2-fluoro-4-(3-(2-hydroxyethyl)ureido)phenyl)-4-morpholino-5H-pyrrolo[3,4-d]pyrimidine-6(7H)-carboxylate], the IC50 in assay [4] (setting [12]) is greater than 10 µM; in assay [7], 0.1 to 1 µM; in assay [5] (setting [13]) it was greater than 10 µM; in assay [1] (setting [14]), greater than 10 µM; in assay [2] (setting [15]), greater than 10 µM. In assay [6], the PI3Ka entry is listed as “D (D >10 μM)”.

Regarding `C[C@@H]1COCCN1c1nc(-c2ccc(NC(=O)NC3CC3)cc2F)nc2c1CN(C(=O)OC(C)(C)C)C2` [Example 182, (R)-tert-butyl 2-(4-(3-cyclopropylureido)-2-fluorophenyl)-4-(3-methylmorpholino)-5H-pyrrolo[3,4-d]pyrimidine-6(7H)-carboxylate], the IC50 in assay [4] (setting [12]) is greater than 10 µM; in assay [7], less than 0.1 µM; in assay [5] (setting [13]), greater than 10 µM; in assay [6], 1 to 10 µM; in assay [1] (setting [14]), 1 to 10 µM; in assay [2] (setting [15]), 1 to 10 µM.

Consider `CC(C)N1Cc2nc(-c3ccc(NC(=O)NCCO)cc3F)nc(N3CCOCC3)c2C1` [Example 184, 1-(3-fluoro-4-(6-isopropyl-4-morpholino-6,7-dihyro-5H-pyrrolo[3,4-d]pyrimidin-2-yl)phenyl)-3-(2-hydroxyethyl)urea], for which the IC50 in assay [4] (setting [12]) is greater than 10 µM; in assay [7], less than 0.1 µM; in assay [5] (setting [13]) it was greater than 10 µM; in assay [1] (setting [14]), 1 to 10 µM; in assay [2] (setting [15]) it was greater than 10 µM. Also, the PI3Ka result in assay [6] is listed as “D (D >10 μM)”.
